Results as given in PubChem BioAssay (NCI).
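Tested at 5 concentrations; 48 h exposure; 96-well plates; endpoints linearly interpolated, else capped at highest concentration. The concentration for 50% growth inhibition is given as GI50. The concentration for full growth arrest is given as TGI.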

Assays:
Assay in all cases: growth of human tumour cells (NCI), 48 h
[1] = system: A549 NSCLC
[2] = system: EKVX NSCLC
[3] = system: HCC-2998 colon
[4] = system: NCI-H23 lung
[5] = system: OVCAR-4 ovarian
[6] = system: SK-OV-3 ovarian
[7] = system: SN12C renal
[8] = system: HS 578T breast
[9] = system: MDA-MB-435
[10] = system: T-47D breast

SMILES | TGI [1] [µM] | TGI [2] [µM] | TGI [3] [µM] | TGI [4] [µM] | TGI [5] [µM] | TGI [6] [µM] | TGI [7] [µM] | TGI [8] [µM] | TGI [9] [µM] | TGI [10] [µM] | GI50 [1] [µM] | GI50 [2] [µM] | GI50 [3] [µM] | GI50 [8] [µM] | GI50 [9] [µM] | GI50 [4] [µM] | GI50 [5] [µM] | GI50 [7] [µM] | GI50 [10] [µM]
CC#CC#C/C=C1\C=CC2(OC=CC2O)O1 (stereo unspecified) | > 23.3 | > 16.7 | > 23.3 | > 23.3 | > 23.3 | > 23.3 | > 23.3 |  |  |  |  |  |  |  |  |  |  |  | 
CN1CCc2c(sc3ncn(Nc4ccc(F)cc4)c(=N)c23)C1 | > 100 | > 100 |  | > 100 | > 100 | > 100 | > 100 | > 100 | > 100 | > 100 |  |  |  |  |  |  |  |  | 
CC(C)=CCc1cc(/C=C/C(=O)O)cc(CC=C(C)C)c1O | > 100 | > 100 |  | > 100 | > 100 | > 100 | > 100 | > 100 | > 100 |  |  |  |  |  |  |  |  |  | 
CC(C)C(CCOS(=O)(=O)O)CCC(C)[C@H]1[C@@H](O)C(O)C2[C@]3(O)C[C@@H](O)C4(O)C[C@@H](O)CC[C@]4(C)C3CC[C@@]21C (stereo partly specified) | > 100 | > 100 | > 100 | > 100 | > 100 | > 100 | > 100 |  |  |  |  |  |  |  |  |  |  |  | 
COc1cc(C(c2ccc3c(c2)OCO3)C2SCCCS2)cc(OC)c1OC (stereo unspecified) | 53.3 | 19.6 | 8.8 | 51.8 | 75.8 | > 100 | 8.99 | 7.97 |  | > 100 |  |  |  |  |  |  |  |  | 
O=C(O)c1ccc(Nc2cnc3cc(C(F)(F)F)ccc3n2)cc1 | > 100 | > 100 | 80.7 | > 100 |  |  | > 100 | > 100 | > 100 | 53.8 |  |  |  |  |  |  |  |  | 
CN1CCN(c2n[nH]c(=O)c3c2nnn3C2CCCCC2)CC1 | > 100 | > 100 | > 100 | > 100 | > 100 |  | > 100 | > 100 | > 100 | > 100 |  |  |  |  |  |  |  |  | 
Nc1ncnc2c1ccn2-c1cccc(NC(=O)c2ccc(N3CCOCC3)c(C(F)(F)F)c2)c1 | 15.2 | 22.1 | 19.6 | 13.6 | 12.5 |  | 9.64 | 6.03 | 13.2 | 7.92 | 3.41 | 3.2 | 4.6 | 1.83 | 2.64 | 2.95 | 3.57 | 2.9 | 2.66
O=C1CN(c2ccccc2)C(=O)CN1NCNN1CC(=O)N(c2ccccc2)CC1=O | > 100 | > 100 | > 100 | > 100 | > 100 | > 100 | > 100 | > 100 | > 100 |  |  |  |  |  |  |  |  |  | 
CC(C)c1c(O[Si](C(C)C)(C(C)C)C(C)C)cc2c(c1O)CC[C@H]1C(C)(C)CCC[C@]21C | > 100 | > 100 |  | > 100 | > 100 | > 100 | > 100 | > 100 | > 100 |  |  |  |  |  |  |  |  |  | 
COc1cc(OC)c(/C=N\Nc2nc3ccccc3c(=O)n2-c2ccccc2)c(OC)c1 | > 78.5 | 63.7 | > 100 | > 100 | > 86.1 | 77.6 | 98.8 |  | > 72.7 | 64.5 |  |  |  |  |  |  |  |  | 
